One assay relates to PC-14. The assay is described as follows: relative viability (nuclei count vs DMSO), 5 days (fraction); higher = more cells survive. To be noted: first compound 8 µM. The method in brief:
(§1)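 Dosing by pin tool came one day after lung cancer cell lines were seeded in 1536-well plates, using either one drug or a fixed anchor-drug dose plus five library-drug doses (not always all listed) in √10 steps. After 5 days, nuclei were counted on 4× images. Relative viability is treated-well nuclei count divided by vehicle-well nuclei count, and values are medians of duplicate plates.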
In turn, `CCCCCCCCCCCC1=C(O)C(=O)C=C(O)C1=O` [Embelin] + Cc1nc(NC(=O)N2CCC[C@H]2C(N)=O)sc1-c1ccnc(C(C)(C)C(F)(F)F)c1 [Alpelisib] (partner 2 µM) registered a relative viability of 0.959.

A further assay relates to NCI-H1355. The description is as above. The note with it: first compound 0.08 µM. The method in brief:
as §1
For `CCCCCCCCCCCC1=C(O)C(=O)C=C(O)C1=O` [Embelin] + COc1cc2c(Oc3ccc(NC(=O)C4(C(=O)Nc5ccc(F)cc5)CC4)cc3F)ccnc2cc1OCCCN1CCOCC1 [Foretinib] (partner 0.25 µM), the relative viability worked out at 0.969.

Compound `CCCCCCCCCCCC1=C(O)C(=O)C=C(O)C1=O` [Embelin] + CC(=O)Nc1cccc(-n2c(=O)n(C3CC3)c(=O)c3c(Nc4ccc(I)cc4F)n(C)c(=O)c(C)c32)c1 [Trametinib] (partner 0.02 µM) registered a relative viability of 0.409.

`CCCCCCCCCCCC1=C(O)C(=O)C=C(O)C1=O` [Embelin] + CS(=O)(=O)N1CCN(Cc2cc3nc(-c4cccc5[nH]ncc45)nc(N4CCOCC4)c3s2)CC1 [Pictilisib] (partner 1 µM) returned a relative viability of 0.501.

On to `CCCCCCCCCCCC1=C(O)C(=O)C=C(O)C1=O` [Embelin] + NC(=O)Nc1cc(-c2cccc(F)c2)sc1C(=O)N[C@H]1CCCNC1 [AZD7762] (partner 0.2 µM), for which the relative viability turned out to be 0.821.

In turn, `CCCCCCCCCCCC1=C(O)C(=O)C=C(O)C1=O` [Embelin] + Cc1nc(NC(=O)N2CCC[C@H]2C(N)=O)sc1-c1ccnc(C(C)(C)C(F)(F)F)c1 [Alpelisib] (partner 2 µM) yielded a relative viability of 0.847.

Staying with this assay, now noted: first compound 0.8 µM.
`CCCCCCCCCCCC1=C(O)C(=O)C=C(O)C1=O` [Embelin] + COc1cc2c(Oc3ccc(NC(=O)C4(C(=O)Nc5ccc(F)cc5)CC4)cc3F)ccnc2cc1OCCCN1CCOCC1 [Foretinib] (partner 0.25 µM): the relative viability came out at 1.07.

`CCCCCCCCCCCC1=C(O)C(=O)C=C(O)C1=O` [Embelin] + CC(=O)Nc1cccc(-n2c(=O)n(C3CC3)c(=O)c3c(Nc4ccc(I)cc4F)n(C)c(=O)c(C)c32)c1 [Trametinib] (partner 0.02 µM) had a relative viability of 0.443.

For the compound `CCCCCCCCCCCC1=C(O)C(=O)C=C(O)C1=O` [Embelin] + CS(=O)(=O)N1CCN(Cc2cc3nc(-c4cccc5[nH]ncc45)nc(N4CCOCC4)c3s2)CC1 [Pictilisib] (partner 1 µM), the relative viability was 0.601.

`CCCCCCCCCCCC1=C(O)C(=O)C=C(O)C1=O` [Embelin] + NC(=O)Nc1cc(-c2cccc(F)c2)sc1C(=O)N[C@H]1CCCNC1 [AZD7762] (partner 0.2 µM): the relative viability was determined as 0.802.

Compound `CCCCCCCCCCCC1=C(O)C(=O)C=C(O)C1=O` [Embelin] + Cc1nc(NC(=O)N2CCC[C@H]2C(N)=O)sc1-c1ccnc(C(C)(C)C(F)(F)F)c1 [Alpelisib] (partner 2 µM) returned a relative viability of 0.897.

The same assay, now with this note: first compound 2.53 µM.
Consider `CCCCCCCCCCCC1=C(O)C(=O)C=C(O)C1=O` [Embelin] + COc1cc2c(Oc3ccc(NC(=O)C4(C(=O)Nc5ccc(F)cc5)CC4)cc3F)ccnc2cc1OCCCN1CCOCC1 [Foretinib] (partner 0.25 µM), for which the relative viability was determined as 1.21.

The compound `CCCCCCCCCCCC1=C(O)C(=O)C=C(O)C1=O` [Embelin] + CC(=O)Nc1cccc(-n2c(=O)n(C3CC3)c(=O)c3c(Nc4ccc(I)cc4F)n(C)c(=O)c(C)c32)c1 [Trametinib] (partner 0.02 µM) registered a relative viability of 0.392.

`CCCCCCCCCCCC1=C(O)C(=O)C=C(O)C1=O` [Embelin] + CS(=O)(=O)N1CCN(Cc2cc3nc(-c4cccc5[nH]ncc45)nc(N4CCOCC4)c3s2)CC1 [Pictilisib] (partner 1 µM) returned a relative viability of 0.4.

In turn, `CCCCCCCCCCCC1=C(O)C(=O)C=C(O)C1=O` [Embelin] + NC(=O)Nc1cc(-c2cccc(F)c2)sc1C(=O)N[C@H]1CCCNC1 [AZD7762] (partner 0.2 µM) registered a relative viability of 0.836.

In the case of `CCCCCCCCCCCC1=C(O)C(=O)C=C(O)C1=O` [Embelin] + Cc1nc(NC(=O)N2CCC[C@H]2C(N)=O)sc1-c1ccnc(C(C)(C)C(F)(F)F)c1 [Alpelisib] (partner 2 µM), the relative viability is 0.916.

Still in this assay, the particulars now being: first compound 8 µM.
Consider `CCCCCCCCCCCC1=C(O)C(=O)C=C(O)C1=O` [Embelin] + COc1cc2c(Oc3ccc(NC(=O)C4(C(=O)Nc5ccc(F)cc5)CC4)cc3F)ccnc2cc1OCCCN1CCOCC1 [Foretinib] (partner 0.25 µM), for which the relative viability turned out to be 1.03.

For `CCCCCCCCCCCC1=C(O)C(=O)C=C(O)C1=O` [Embelin] + CC(=O)Nc1cccc(-n2c(=O)n(C3CC3)c(=O)c3c(Nc4ccc(I)cc4F)n(C)c(=O)c(C)c32)c1 [Trametinib] (partner 0.02 µM), the relative viability amounted to 0.418.

`CCCCCCCCCCCC1=C(O)C(=O)C=C(O)C1=O` [Embelin] + CS(=O)(=O)N1CCN(Cc2cc3nc(-c4cccc5[nH]ncc45)nc(N4CCOCC4)c3s2)CC1 [Pictilisib] (partner 1 µM) returned a relative viability of 0.273.

With `CCCCCCCCCCCC1=C(O)C(=O)C=C(O)C1=O` [Embelin] + NC(=O)Nc1cc(-c2cccc(F)c2)sc1C(=O)N[C@H]1CCCNC1 [AZD7762] (partner 0.2 µM), the relative viability was determined as 0.743.

For the compound `CCCCCCCCCCCC1=C(O)C(=O)C=C(O)C1=O` [Embelin] + Cc1nc(NC(=O)N2CCC[C@H]2C(N)=O)sc1-c1ccnc(C(C)(C)C(F)(F)F)c1 [Alpelisib] (partner 2 µM), the relative viability came out at 0.771.

The test system of a further assay is NCI-H441. Described as above. The note with it: first compound 0.08 µM. In short, it runs like this: as §1
`CCCCCCCCCCCC1=C(O)C(=O)C=C(O)C1=O` [Embelin] + COc1cc2c(Oc3ccc(NC(=O)C4(C(=O)Nc5ccc(F)cc5)CC4)cc3F)ccnc2cc1OCCCN1CCOCC1 [Foretinib] (partner 0.25 µM) yielded a relative viability of 1.05.

As to `CCCCCCCCCCCC1=C(O)C(=O)C=C(O)C1=O` [Embelin] + CC(=O)Nc1cccc(-n2c(=O)n(C3CC3)c(=O)c3c(Nc4ccc(I)cc4F)n(C)c(=O)c(C)c32)c1 [Trametinib] (partner 0.02 µM), the relative viability came to 0.399.

`CCCCCCCCCCCC1=C(O)C(=O)C=C(O)C1=O` [Embelin] + CS(=O)(=O)N1CCN(Cc2cc3nc(-c4cccc5[nH]ncc45)nc(N4CCOCC4)c3s2)CC1 [Pictilisib] (partner 1 µM): the relative viability is 0.437.

Turning to `CCCCCCCCCCCC1=C(O)C(=O)C=C(O)C1=O` [Embelin] + NC(=O)Nc1cc(-c2cccc(F)c2)sc1C(=O)N[C@H]1CCCNC1 [AZD7762] (partner 0.2 µM), the relative viability amounted to 1.09.

On to `CCCCCCCCCCCC1=C(O)C(=O)C=C(O)C1=O` [Embelin] + Cc1nc(NC(=O)N2CCC[C@H]2C(N)=O)sc1-c1ccnc(C(C)(C)C(F)(F)F)c1 [Alpelisib] (partner 2 µM), for which the relative viability turned out to be 0.85.

The assay is the same for the next values; noted with them: first compound 0.8 µM.
`CCCCCCCCCCCC1=C(O)C(=O)C=C(O)C1=O` [Embelin] + COc1cc2c(Oc3ccc(NC(=O)C4(C(=O)Nc5ccc(F)cc5)CC4)cc3F)ccnc2cc1OCCCN1CCOCC1 [Foretinib] (partner 0.25 µM) gave a relative viability of 1.09.

`CCCCCCCCCCCC1=C(O)C(=O)C=C(O)C1=O` [Embelin] + CC(=O)Nc1cccc(-n2c(=O)n(C3CC3)c(=O)c3c(Nc4ccc(I)cc4F)n(C)c(=O)c(C)c32)c1 [Trametinib] (partner 0.02 µM): the relative viability turned out to be 0.584.

These data come from the supplement of paper PMC10307832.
